Experimental data taken from US5037812A, “Tumor cell growth-inhibiting pharmaceutical compositions containing phosphino-hydrocarbon-gold, silver or copper complexes” (priority 1986, dated 1991).
Values joined by “and” are separate entries in the source; they are usually repeats but may differ in a detail not shown here. Identical values can stand only once. Like-named read-outs stand apart in the source and are kept apart here.

How the values were obtained:
[1] = Struck et al., J. Med. Chem., 9, 414-416 (1966); cited from earlier work
[2] = test system: M5076 reticulum cell sarcoma; settings: positive control, general statement; cited from earlier work
[3] = test system: mammary adenocarcinoma 16/c; assay: sc mammary adenocarcinoma 16/c tumor model; format: in vivo, mice (C3H); settings: for Inhibition: Day 21
Description: In this experiment, the tumor was implanted sc in C3H mice, and the drug was administered ip or iv on an intermittent treatment schedule, i.e., once on days 1, 5, 9, 13 and 17. Tumors were measured 3 weeks after implantation, and activity was assessed by degree of tumor growth inhibition.
*N.P. = Proportion of mice without palpable tumors on Day 21

[4] = test system: mammary adenocarcinoma 16/c; settings: positive control, general statement; cited from earlier work
B16 melanoma = assay: in vivo ip B16 melanoma assay; design: species or system mice (B6D2F1); settings: ip qDX10; for MTD (maximally tolerated dose): B6D2F1 mice; for ILS (maximum increase in lifespan): mice bearing ip B16 melanoma, slash-separated figures are separate experiments
Description: Daily treatment is begun 24 hours after tumor implantation and is continued daily for ten (10) days. The route of drug administration is ip. The mice are monitored daily for survival for sixty (60) days. Antitumor activity is assessed by prolongation of median survival time. An ILS of ≥25% indicates activity in this tumor model.
^(b) maximally tolerated dose for B6D2F1 mice on an ip qDX10
^(c) maximum increase in lifespan produced in mice bearing ip B16

[5] = solubility in 9:1 water:ethanol (HPLC of filtrate)
Description: (§1) Such solubility was determined as follows: The compound in question was dissolved or suspended in absolute ethanol (250 mg solid per 1.0 ml ethanol). To the resulting solution or suspension, water (9.0 times the volume of ethanol) was added. This suspension was stirred vigorously for 15 hours, then filtered through a 0.45 μm poly(tetrafluoroethylene) (PTFE) filter. […] The HPLC system was as follows:
(§2) Column PLRP-S, 5μm, obtained from Polymer Laboratories, Inc.
(§3) Mobile Phase 9:1 acetonitrile:0.1% tetra-n-butylammonium hydrogen sulfate (50° C., 1.0 ml-min-^-1)
Detection Ultraviolet (250 nm)

[6] = test system: M5076 reticulum cell sarcoma; settings: 2 mg/kg ip, qD × 10
Description: B6D2F female mice are inoculated sc in the flank with 0.5 ml of a 10% (w:v) brei of M5076 prepared from pooled sc tumors excised at about Day 21 from C57Bl/6 donors. Treatment is initiated one day after tumor implantation, and is continued daily for 10 days. Tumors are measured 21 days after tumor implantation activity is determined by the degree of tumor growth inhibition.

B16 melanoma cells = assay: B16 melanoma cell assay, clonogenic capacity in vitro after two-hour exposure; format: cell-based; settings: 2-hour exposure; read-out: IC50: concentration which inhibits cloning efficiency of B16 melanoma cells by 50%
Description: The B16 melanoma cell assay measures the ability of a compound to inhibit the clonogenic capacity of cells in vitro following a two-hour exposure to the compound.
B16 melanoma (highly metastatic subline, F10) are used and maintained as monolayer cultures in Minimal Essential Media (Grand Island Biological Col., Grand Island, N.Y.) supplemented with 10% calf serum, 1% antibiotics in a 5% CO2 humidified incubator at 37° C. Asynchronous populations of cells are harvested and replated to 5000 cells/plate in sterile 60 mm×15 mm petri plates. Plates are incubated overnight to allow attachment of the cells to the plate. Cells are treated with a Formula (I) or Formula (II) compound/under sterile conditions, allowed to react for 2 hours followed by aspiration of medium. Plates are washed one time with 5 ml of phosphate buffered saline (PBS), followed by the addition of 5 ml of fresh medium. Plates are incubated for 5 days at 37° C. in a CO2 incubator. Viability is measured by the ability of a cell to form a colony of greater than 50 cells. Colonies are fixed with 0.5% crystal violet in 95% ethanol. Plates are dried and counted with a Biotran III Automatic Count Totalizer (New Brunswick Scientific Co., Edison, N.J.). Mean and standard deviation of triplicate samples are determined for each drug concentration. The data are analyzed plotting the log of the survival fraction (number of colonies in drug treated plates/number of colonies in controls) versus the drug concentration.
^a Concentration which inhibits cloning efficiency of B16 melanoma
cells by 50% on a 2hour exposure

[7] = test system: M5076 reticulum cell sarcoma; assay: ip M5076 reticulum cell sarcoma in mice; format: in vivo, mice (B6D2F female); settings: for MTD (maximally tolerated dose): B6D2F female mice, ip qDX10; for ILS max (maximum increase in lifespan): mice bearing ip M5076, ip qDX10 at MTD, slash-separated figures are separate experiments
Description: Another tumor model used for evaluation of tumor growth inhibiting drugs is intraperitoneally implanted M5076 reticulum cell sarcoma in mice. […] Drugs are administered ip. Daily treatment is begun 24 hours after implantation and is continued for ten days. The treatment regimen for M5076 is more prolonged than for P388 because of the slower growth rate and longer control survival time of the M5076 tumor. Compounds of Formula (I) and Formula (II) were evaluated in this assay. An evaluation of several compounds of Formula (I) in the M5076 reticulum cell sarcoma assay at their maximally tolerated dose (MTD) is set forth in Table III. An ILS of ≥25% indicates activity in this tumor model.
^(b) maximally tolerated dose for B6D2F female mice on an ip qDX10
^(c) maximum increase in lifespan produced in mice bearing ip M5076

P388 leukemia = assay: ip P388 leukemia mouse model; format: in vivo, mice (B6D2F1); settings: for MTD (maximally tolerated dose): B6D2F female mice, ip qDX5; for ILS max (maximum increase in lifespan): mice bearing ip P388 leukemia, ip days 1-5 at MTD, slash-separated figures are separate experiments
Description: This tumor system is widely accepted as an antitumor agent screening tool because it is sensitive to virtually all of the clinically active antineoplastic agents; quantitative and reproducible; amenable for large-scale screening; and predictive for activity in other animal tumor models.
10^6 P388 leukemia cells are inoculated ip in B6D2F1 mice. Twenty-four hours later, if the tumor inoculum proves to be free of bacterial contamination (as determined by 24 hours incubation in thioglycollate broth), animals are randomized into groups of 6 and housed in shoebox cages. […] An equal volume of saline or water is added; if the drug comes out of solution an equal volume of Cremophor (polyethoxylated castor oil) is added and then saline or water, as to a concentration such that the desired dose is delivered in 0.5 ml. The final concentration of DMA, ethanol or Cremophor is 10 percent. Dilutions for lower doses are made with saline or water so that there is a decreasing proportion of organic solvents in the vehicle with decreasing dosage. […] Formulations are prepared immediately prior to injection. The Formula (I) and Formula (II) compounds are administered ip on Days 1 through 5 (i.e., treatment is initiated 24 hrs after tumor inoculation). Each experiment includes three groups of 6 animals as untreated controls and animals treated with a positive control, cisplatin, at two dose levels. Animals are weighed as a group on Days 1, 5 and 9 and average weight change (Δwt.) is used as a reflection of toxicity. Each experiment also includes an inoculum titration--groups of 8 mice inoculated ip with 10^5 to 10^0 P388 leukemia cells. The titration is used as a quality control check for the performance of the tumor model. Animals are monitored daily for mortality and experiments are terminated after 45 days. The endpoint is median survival time (MST) and increase in lifespan (ILS) which is the percentage of increase in MST relative to untreated controls.

[8] = test system: HT-29 human colon carcinoma cells; assay: HT-29 human colon carcinoma cell killing in vitro; format: cell-based; settings: 2-hour exposure
[9] = 15 h
Description: as §1, §2, §3
Detection Ultraviolet (250 nm)

[10] = Experiment 1, ip, q4D × 5, 6 mg/kg
[11] = Experiment 2, ip, q4D × 5, 6 mg/kg
[12] = Experiment 2, iv, q4D × 5, 6 mg/kg
[13] = Experiment 3, ip, q4D × 5, 6 mg/kg
[14] = Experiment 1, ip, q4D × 5, 8 mg/kg
[15] = Experiment 2, iv, q4D × 5, 12 mg/kg
[16] = Experiment 3, ip, q4D × 5, 8 mg/kg

## c1ccc(P(CCP(c2ccccc2)c2ccccc2)c2ccccc2)cc1 [1,2-bis(diphenyl-phosphino)ethane]
[1]
  cytotoxic activity (in words): cytotoxic activity

## N.N.[Cl][Pt][Cl] [Cisplatin, reference compound]
[2]
  tumor growth inhibition (in words): complete tumor growth inhibition
[3]; [10]
  Mean Tumor Volume on Day 21: 30 ± 64 mm^3
  N.P. (proportion of mice without palpable tumors on Day 21): 6/8
  Inhibition: 97%
[3]; [11]
  Mean Tumor Volume on Day 21: 0 mm^3
  N.P. (proportion of mice without palpable tumors on Day 21): 8/8
  Inhibition: 100%
[3]; [12]
  Mean Tumor Volume on Day 21: 21 ± 61 mm^3
  N.P. (proportion of mice without palpable tumors on Day 21): 7/8
  Inhibition: 98%
[3]; [13]
  Mean Tumor Volume on Day 21: 586 ± 266 mm^3
  N.P. (proportion of mice without palpable tumors on Day 21): 0/8
  Inhibition: 37%
[4]
  inhibition of the growth of mammary adenocarcinoma 16/c (in words): complete inhibition

## [Au+].[Cl-].c1ccc(P(CCP(c2ccccc2)c2ccccc2)c2ccccc2)cc1.c1ccc(P(CCP(c2ccccc2)c2ccccc2)c2ccccc2)cc1 [Compound No. 1, Bis[1,2-Bis(diphenylphosphino)ethane]Gold(I) Chloride]
B16 melanoma
  MTD (maximally tolerated dose): 2 mg/kg
  ILS (maximum increase in lifespan): 50% and 43% and 33% and 28% and 37%
[5]; 9:1 water:ethanol
  solubility in 9:1 water:ethanol (in words): true solution
[5]; stirred 15 hours, 0.45 μm PTFE filter, HPLC
  Solubility in 9:1 Water:Ethanol: 170 µg/mL
[5]; water
  solubility in water (in words): forms a suspension in water
[3]; [14]
  Mean Tumor Volume on Day 21: 96 ± 143 mm^3
  N.P. (proportion of mice without palpable tumors on Day 21): 4/7
  Inhibition: 92%
[3]; [11]
  Mean Tumor Volume on Day 21: 430 ± 291 mm^3
  N.P. (proportion of mice without palpable tumors on Day 21): 0/8
  Inhibition: 61%
[3]; [15]
  Mean Tumor Volume on Day 21: 181 ± 163 mm^3
  N.P. (proportion of mice without palpable tumors on Day 21): 2/8
  Inhibition: 84%
[3]; [16]
  Mean Tumor Volume on Day 21: 0 mm^3
  N.P. (proportion of mice without palpable tumors on Day 21): 5/5
  Inhibition: 100%
[6]
  % Inhibition of tumor growth (Day 21): 91% and 48%
  N.P. (proportion of mice without palpable tumor on Day 21): 2/7 and 1/7
B16 melanoma cells
  IC50: 4.5 µM
[7]
  MTD (maximally tolerated dose): 2 mg/kg
  ILS max (maximum increase in lifespan): 56% and 83% and 52% and 47% and 49%
P388 leukemia
  MTD (maximally tolerated dose): 2 mg/kg
  ILS max (maximum increase in lifespan): 83 ± 24%
[8]
  effectively killed HT-29 cells following exposure to concentrations: < 10 µM

## [Au+].[Cl-].c1ccc(P(CCCP(c2ccccc2)c2ccccc2)c2ccccc2)cc1.c1ccc(P(CCCP(c2ccccc2)c2ccccc2)c2ccccc2)cc1 [compound 4, Bis[1,3-Bis(diphenylphosphino)propane]Gold(I) Chloride]
B16 melanoma
  MTD (maximally tolerated dose): 2 mg/kg
  ILS (maximum increase in lifespan): 34% and 28% and 40%
B16 melanoma cells
  IC50: 0.6 µM
[7]
  MTD (maximally tolerated dose): 2 mg/kg
  ILS max (maximum increase in lifespan): 116%
P388 leukemia
  MTD (maximally tolerated dose): 3 mg/kg
  ILS max (maximum increase in lifespan): 89 ± 28%

## O=C([O-])C(O)CO.[Au+].c1ccc(P(CCP(c2ccccc2)c2ccccc2)c2ccccc2)cc1.c1ccc(P(CCP(c2ccccc2)c2ccccc2)c2ccccc2)cc1 [compound 25, Bis[1,2-bis(diphenylphosphino)ethane]gold(I) DL-2,3-dihydroxypropanoate]
B16 melanoma
  MTD (maximally tolerated dose): 0.75 mg/kg
  ILS (maximum increase in lifespan): 28%
[9]
  Solubility in 9:1 Water:Ethanol: 2200 µg/mL
P388 leukemia
  MTD (maximally tolerated dose): 2 mg/kg
  ILS max (maximum increase in lifespan): 55% and 65%

## Bis[1,2-bis(diphenylphosphino)ethane]Silver(I) Nitrate [compound 2]
B16 melanoma cells
  IC50: 4 µM
[7]
  MTD (maximally tolerated dose): 2 mg/kg
  ILS max (maximum increase in lifespan): 48%
P388 leukemia
  MTD (maximally tolerated dose): 3 mg/kg
  ILS max (maximum increase in lifespan): 89% and 90%

## Bis[cis-1,2-bis(diphenylphosphino)ethylene]Gold(I) Chloride [compound 3]
B16 melanoma
  MTD (maximally tolerated dose): 1.5 mg/kg
  ILS (maximum increase in lifespan): 35%
B16 melanoma cells
  IC50: 2 µM
[7]
  MTD (maximally tolerated dose): 2.4 mg/kg
  ILS max (maximum increase in lifespan): 69%
P388 leukemia
  MTD (maximally tolerated dose): 2 mg/kg
  ILS max (maximum increase in lifespan): 92 ± 26%

## Tris[1,2-bis(diphenylphosphino)ethane]Dicopper(I) Chloride
B16 melanoma
  MTD (maximally tolerated dose): 1 mg/kg
  ILS (maximum increase in lifespan): 54%
[7]
  MTD (maximally tolerated dose): 1.6 mg/kg
  ILS max (maximum increase in lifespan): 60%
P388 leukemia
  MTD (maximally tolerated dose): 2 mg/kg
  ILS max (maximum increase in lifespan): 100% and 115%
